We go through 3 compounds from US8912121B2, “Herbicidal compositions comprising 4-amino-3-chloro-5-fluoro-6-(4-chloro-2-fluoro-3-methoxyphenyl)pyridine-2-carboxylic acid or a derivative thereof and certain PS II inhibitors” (Dow Agrosciences LLC, priority 2012, dated 2014).

The subject of test [1] is AMARE (Amaranthus retroflexus, redroot pigweed). The test is described as follows: Postemergence herbicidal activity of mixtures in cereal crops, greenhouse. The class given is in vivo, Amaranthus retroflexus L. As for the experimental part: (§1) Seeds of the desired test plant species were planted in Sun Gro MetroMix® 306 planting mixture, which typically has a pH of 6.0 to 6.8 and an organic matter content of about 30 percent, in plastic pots with a surface area of 103.2 square centimeters (cm^2). When required to ensure good germination and healthy plants, a fungicide treatment and/or other chemical or physical treatment was applied. The plants were grown for 7-36 days in a greenhouse with an approximate 14 hour photoperiod which was maintained at about 18° C. during the day and about 17° C. during the night. Nutrients and water were added on a regular basis and supplemental lighting was provided with overhead metal halide 1000-Watt lamps as necessary. The plants were employed for testing when they reached the second or third true leaf stage.
(§2) Treatments consisted of the benzyl ester of 4-amino-3-chloro-5-fluoro-6-(4-chloro-2-fluoro-3-methoxy-phenyl)pyridine-2-carboxylic acid (Compound A), formulated as an SC, a second cereal herbicide alone and then both in combination.
(§3) Other herbicidal components were applied on an active ingredient basis and included PSII-inhibiting herbicides.
(§4) Measured aliquots of benzyl ester of 4-amino-3-chloro-5-fluoro-6-(4-chloro-2-fluoro-3-methoxy-phenyl)pyridine-2-carboxylic acid (Compound A) were placed in 25 milliliter (mL) glass vials and diluted in a volume of 1.25% (v/v) Agri-Dex® crop oil concentrate to obtain stock solutions. Compound requirements are based upon a 12 mL application volume at a rate of 187 liters per hectare (L/ha). Spray solutions of the second cereal herbicide and experimental compound mixtures were prepared by adding the stock solutions to the appropriate amount of dilution solution to form 12 mL spray solution with active ingredients in two- and three-way combinations. Formulated compounds were applied to the plant material with an overhead Mandel track sprayer equipped with an 8002E nozzle calibrated to deliver 187 L/ha over an application area of 0.503 square meters (m^2) at a spray height of 18 inches (46 cm) above average plant canopy. Control plants were sprayed in the same manner with the solvent blank.
(§5) The treated plants and control plants were placed in a greenhouse as described above and watered by sub-irrigation to prevent wash-off of the test compounds. After 20-22 days, the condition of the test plants as compared with that of the control plants was determined visually and scored on a scale of 0 to 100 percent where 0 corresponds to no injury and 100 corresponds to complete kill.
(§6) Colby's equation was used to determine the herbicidal effects expected from the mixtures (Colby, S. R. 1967. Calculation of the synergistic and antagonistic response of herbicide combinations. Weeds 15:20-22). […]

In test [2] the test system is SINAR (Sinapis arvensis, wild mustard). The description is as above. It counts as in vivo, Sinapis arvensis L. As for the experimental part:
as §1, §2, §3, §4, §5
(§7) Colby's equation was used to determine the herbicidal effects expected from the mixtures (Colby, S. R. 1967. Calculation of the synergistic and antagonistic response of herbicide combinations. Weeds 15:20-22).
(§8) The following equation was used to calculate the expected activity of mixtures containing two active ingredients, A and B: Expected=A+B−(A×B/100)

For test [3], the system named is LAMPU (Lamium purpureum, purple deadnettle). The description is as above. It counts as in vivo, Lamium purpureum L. As to the method:
as §1, §2, §3, §4, §5, §7, §8

Test [4] relates to VERPE (Veronica persica, Persian speedwell). The description is as above. It counts as in vivo, Veronica persica Poir. As to the method: as §1, §2, §3, §4, §5, §7, §8
The test system of test [5] is GALAP (Galium aparine, catchweed bedstraw). The description is as above. The class given is in vivo, Galium aparine L. As to the method:
as §1, §2, §3, §4, §5, §7, §8

Test [6] relates to KCHSC (Kochia scoparia, kochia). The description is as above. The class given is in vivo, Kochia scoparia (L.) Schrad. As to the method: as §1, §2, §3, §4, §5, §7, §8
The subject of test [7] is SETFA (Setaria faberi, giant foxtail). The test is described as follows: Pre-emergence soil-applied mixtures, greenhouse. The class given is in vivo, Setaria faberi Herrm. As to conditions: 27 DAA. The text has this:
(§9) Seeds or nutlets of the desired test plant species were planted in a soil matrix prepared by mixing a loam soil (32 percent silt, 23 percent clay, and 45 percent sand, with a pH of about 6.5 and an organic matter content of about 1.9 percent) and calcareous grit in an 80 to 20 ratio. The soil matrix was contained in plastic pots with a volume of 1 quart and a surface area of 83.6 square centimeters (cm^2).
(§10) Treatments consisted of the benzyl ester of 4-amino-3-chloro-5-fluoro-6-(4-chloro-2-fluoro-3-methoxy-phenyl)pyridine-2-carboxylic acid (compound A) formulated as an SC (suspension concentrate) and various herbicidal components alone and in combination. Forms of compound A were applied on an acid equivalent basis.
(§11) Other herbicidal components were applied on an acid equivalent or active ingredient basis and included the PSII-inhibiting herbicides, atrazine formulated as Atrazine® 90WDG, metribuzin formulated as Metribuzin 75DF, simazine formulated as Princep Caliber 90, tebuthiuron formulated as Spike 80DF, cyanazine (technical grade material), hexazinone (technical grade material), linuron (technical grade material), terbuthylazine (technical grade material), and diuron formulated as Diuron 4L.
(§12) Treatment requirements were calculated based upon the rates being tested, the concentration of active ingredient or acid equivalent in the formulation, and a 12 mL application volume at a rate of 187 L/ha.
(§13) For treatments comprised of formulated compounds, measured amounts of compounds were placed individually in 25 mL glass vials and diluted in a volume of 1.25% (v/v) Agri-Dex® crop oil concentrate (COC) to obtain 12× stock solutions. […] Application solutions were prepared by adding an appropriate amount of each stock solution (e.g., 1 mL) and diluted to the appropriate final concentrations with the addition of 10 mL of an aqueous mixture of 1.25% (v/v) COC so that the final spray solutions contained 1.25% (v/v) COC.
(§14) For treatments comprised of technical compounds, weighed amounts can be placed individually in 25 mL glass vials and dissolved in a volume of 97:3 (v/v) acetone/DMSO to obtain 12× stock solutions. […] Application solutions can be prepared by adding an appropriate amount of each stock solution (e.g., 1 mL) and diluted to the appropriate final concentrations with the addition of 10 mL of an aqueous mixture of 1.5% (v/v) COC so that the final spray solutions contain 1.25% (v/v) COC. When technical materials are used, the concentrated stock solutions can be added to the spray solutions so that the final acetone and DMSO concentrations of the application solutions are 16.2% and 0.5%, respectively.
(§15) For treatments comprised of formulated and technical compounds, weighed amounts of the technical materials can be placed individually in 25 mL glass vials and dissolved in a volume of 97:3 (v/v) acetone/DMSO to obtain 12× stock solutions, and measured amounts of the formulated compounds can be placed individually in 25 mL glass vials and diluted in a volume of 1.5% (v/v) COC or water to obtain 12× stock solutions. […] Application solutions can be prepared by adding an appropriate amount of each stock solution (e.g., 1 mL) and diluted to the appropriate final concentrations with the addition of an appropriate amount of an aqueous mixture of 1.5% (v/v) COC so that the final spray solutions contain 1.25% (v/v) COC. As required, additional water and/or 97:3 (v/v) acetone/DMSO can be added to individual application solutions so that the final acetone and DMSO concentrations of the application solutions being compared are 8.1% and 0.25%, respectively.
(§16) All stock solutions and applications solutions were visually inspected for compound compatibility prior to application. Spray solutions were applied to the soil with an overhead Mandel track sprayer equipped with a 8002E nozzles calibrated to deliver 187 L/ha over an application area of 0.503 m^2 at a spray height of 18 inches (46 cm) above average pot height. […]

Test [8] has as its system SASKR (Salsola tragus, Russian thistle). Nature of the test: Postemergence herbicidal activity of mixtures in cereal crops, greenhouse. The class given is in vivo, Salsola tragus L. As for the experimental part:
as §1, §2, §3, §4, §5, §7, §8

The subject of test [9] is CHEAL (Chenopodium album, common lambsquarters). Described as above. It counts as in vivo, Chenopodium album L. As for the experimental part: as §1, §2, §3, §4, §5, §6
The test system of test [10] is XANST (Xanthium strumarium, common cocklebur). Nature of the test: Pre-emergence soil-applied mixtures, greenhouse. The class given is in vivo, Xanthium strumarium L. As to conditions: 29 DAA.
From the text: as §9, §10, §11, §12, §13, §14, §15, §16

Test [11] relates to IPOHE (Ipomoea hederacea, ivyleaf morningglory). Nature of the test: Pre-emergence soil-applied mixtures, greenhouse. It counts as in vivo, Ipomoea hederacea (L.) Jacq.
From the text: as §9, §10, §11, §12, §13
For treatments comprised of technical compounds, weighed amounts can be placed individually in 25 mL glass vials and dissolved in a volume of 97:3 (v/v) acetone/DMSO to obtain 12× stock solutions. […]
For treatments comprised of formulated and technical compounds, weighed amounts of the technical materials can be placed individually in 25 mL glass vials and dissolved in a volume of 97:3 (v/v) acetone/DMSO to obtain 12× stock solutions, and measured amounts of the formulated compounds can be placed individually in 25 mL glass vials and diluted in a volume of 1.5% (v/v) COC or water to obtain 12× stock solutions. […]

Each structure is given as a SMILES string.

`CC(C)c1ccc(NC(=O)N(C)C)cc1` [Isoproturon, N,N-dimethyl-N′-[4-(1-methylethyl)phenyl]urea, reference compound]: the “Visual Weed Control (%) - 21 DAA AMARE Obs” value is 3% in test [1] (Isoproturon 375 g ai/ha) and 10% in [1] (Isoproturon 750 g ai/ha). For the same compound, the results for the “Visual Weed Control (%)-21 DAA SINAR Obs” value in test [2] (Isoproturon 375 g ai/ha) and in test [2] (Isoproturon 750 g ai/ha) were 13% and 40%, respectively. The “Visual Weed Control (%)-21 DAA LAMPU Obs” value in test [3] (Isoproturon 375 g ai/ha) came out at 3%; in test [3] (Isoproturon 750 g ai/ha), 3%; in test [3] (Isoproturon 1500 g ai/ha), 13%. The entries for the “Visual Weed Control (%) - 21 DAA VERPE Obs” value in test [4] (Isoproturon 375 g ai/ha), in [4] (Isoproturon 750 g ai/ha) and in test [4] (Isoproturon 1500 g ai/ha) were 8%, 10% and 13%, respectively. For the same compound, the results for the “Visual Weed Control (%) - 21 DAA GALAP Obs” value in [5] (Isoproturon 375 g ai/ha), in [5] (Isoproturon 750 g ai/ha) and in test [5] (Isoproturon 1500 g ai/ha) were 5%, 5% and 27%, respectively.

With `CSc1nnc(C(C)(C)C)c(=O)n1N` [Metribuzin, 4-amino-6-(1,1-dimethylethyl)-3-(methylthio)-1,2,4-triazin-5(4H)-one, reference compound], the figures for the “Visual Weed Control (%)-21 DAA SINAR Obs” value in test [2] (Metribuzin 25 g ai/ha) and in test [2] (Metribuzin 50 g ai/ha) were 8% and 15%, respectively. The “Visual Weed Control (%)-21 DAA KCHSC Obs” value is 0% in test [6] (Metribuzin 25 g ai/ha), 8% in test [6] (Metribuzin 50 g ai/ha) and 88% in test [6] (Metribuzin 100 g ai/ha). Further, the “Visual Weed Control (%) Obs” value in test [7] (210 g ai/ha) was found to be 43%; in [7] (420 g ai/ha), 83%. Also, the “Visual Weed Control (%)-21 DAA LAMPU Obs” value in test [3] (Metribuzin 25 g ai/ha) was 3%; in test [3] (Metribuzin 50 g ai/ha), 15%; in test [3] (Metribuzin 100 g ai/ha) it was 23%. In addition, the “Visual Weed Control (%)-21 DAA SASKR Obs” value in [8] (Metribuzin 25 g ai/ha) was 8%; in test [8] (Metribuzin 50 g ai/ha) it was 8%; in test [8] (Metribuzin 100 g ai/ha), 67%. Further, the “Visual Weed Control (%)-21 DAA CHEAL Obs” value was 0% in [9] (Metribuzin 25 g ai/ha) and 55% in [9] (Metribuzin 50 g ai/ha).

Turning to `CNC(=O)N(C)c1nnc(C(C)(C)C)s1` [Tebuthiuron, N-[5-(1,1-dimethylethyl)-1,3,4-thiadiazol-2-yl]-N,N′-dimethylurea, reference compound], the “Visual Weed Control (%) - 29 DAA XANST Obs” value in [10] (Tebuthiuron 210 g ai/ha) came out at 40%; in test [10] (Tebuthiuron 3360 g ai/ha), 95%. In addition, the “Visual Weed Control (%) - 33 DAA IPOHE Obs” value in test [11] (Tebuthiuron 420 g ai/ha) is on record as 87%; in test [11] (Tebuthiuron 840 g ai/ha) it was 90%.
